Measurements as given in US20250388565A1, “ESTROGEN RECEPTOR ALPHA DEGRADERS AND METHODS OF USE THEREOF” (Relay Therapeutics, Inc., priority 2022, published 2025).

These compounds were tested against T1, ERα protein (HiBiT-tagged) in ESR1_HiBiT KI MCF7 cells (Homo sapiens, UniProt P03372) (assay: Nano Glo HiBiT Lytic Degradation Assay). Conditions: 6 hours with compound, 14-point dose response 1:3, bell-shape curve fit, half-maximal effect of first Hill model, read-out: MCF7 ESR1 HiBiT - (DC50).
T1 sequence (P03372 1-595): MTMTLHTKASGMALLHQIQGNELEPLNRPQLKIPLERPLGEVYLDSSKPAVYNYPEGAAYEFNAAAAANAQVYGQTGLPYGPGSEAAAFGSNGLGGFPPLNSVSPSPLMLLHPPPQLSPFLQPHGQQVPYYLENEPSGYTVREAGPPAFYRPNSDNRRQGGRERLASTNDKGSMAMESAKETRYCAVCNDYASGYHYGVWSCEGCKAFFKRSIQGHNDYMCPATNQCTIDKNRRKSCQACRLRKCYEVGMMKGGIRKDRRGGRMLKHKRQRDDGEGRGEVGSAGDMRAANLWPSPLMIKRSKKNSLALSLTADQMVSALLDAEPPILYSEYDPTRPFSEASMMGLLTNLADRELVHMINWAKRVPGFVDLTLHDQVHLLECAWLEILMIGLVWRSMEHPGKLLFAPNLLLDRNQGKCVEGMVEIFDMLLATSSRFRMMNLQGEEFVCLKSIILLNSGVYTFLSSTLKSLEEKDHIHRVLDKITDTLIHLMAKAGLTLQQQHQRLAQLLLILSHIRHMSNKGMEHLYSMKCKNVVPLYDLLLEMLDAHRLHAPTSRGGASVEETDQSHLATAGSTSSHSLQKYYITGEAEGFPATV
Type: cell-based
Outline: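 Lytic Nano-Glo HiBiT luminescence quantified ERα remaining after a 6 h, 37° C compound exposure of MCF7 cells carrying endogenous HiBiT-tagged ESR1. Dosing used 14 threefold dilutions from a 10 mM DMSO stock (0.1% DMSO final), run in duplicate. Signals were corrected for cell-free background and expressed relative to DMSO, and DC50 came from a bell-shaped curve fit (first Hill model half-maximum).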
`Cc1cc(F)cc([C@@H]2OCc3cc(O)ccc3[C@@H]2c2ccc(N3CCC(CN4CCN(c5ccc6c(c5)CN([C@H]5CCC(=O)NC5=O)C6=O)CC4)CC3)cc2)c1` [Compound I-378, (S)-3-(5-(4-((1-(4-((3R,4S)-3-(3-fluoro-5-methylphenyl)-7-hydroxyisochroman-4-yl)phenyl)piperidin-4-yl)methyl)piperazin-1-yl)-1-oxoisoindolin-2-yl)piperidine-2,6-dione] was tested, and the DC50 was ≥ 10000 nM. `O=C1CCN(c2ccc(N3CCC4(CCN(CC5CCN(c6ccc([C@@H]7c8ccc(O)cc8CO[C@@H]7c7ccccc7)cc6)CC5)C4)CC3)cc2)C(=O)N1` [Compound I-391, 1-(4-(2-((1-(4-((3S,4R)-7-hydroxy-3-phenylisochroman-4-yl)phenyl)piperidin-4-yl)methyl)-2,8-diazaspiro[4.5]decan-8-yl)phenyl)dihydropyrimidine-2,4 (1H,3H)-dione] showed a DC50 of 0.42 nM. In the case of `Cc1cc(N2CCC3(CCN(CC4CCN(c5ccc([C@@H]6c7ccc(O)cc7CO[C@@H]6c6ccccc6)cc5)CC4)C3)CC2)ccc1N1CCC(=O)NC1=O` [Compound I-392, 1-(4-(2-((1-(4-((3S,4R)-7-hydroxy-3-phenylisochroman-4-yl)phenyl)piperidin-4-yl)methyl)-2,8-diazaspiro[4.5]decan-8-yl)-2-methylphenyl)dihydropyrimidine-2,4 (1H,3H)-dione], the DC50 is reported as 0.13 nM. `Cn1nc(C2CCC(=O)NC2=O)c2ccc(N3CCN(CC4CCN(c5ccc([C@@H]6c7ccc(O)cc7CO[C@@H]6c6ccccc6)cc5)CC4)CC3)cc21` (stereo partly drawn) [Compound I-393, 3-[6-[4-[[1-[4-[(3S,4R)-7-hydroxy-3-phenyl-isochroman-4-yl]phenyl]-4-piperidyl]methyl]piperazin-1-yl]-1-methyl-indazol-3-yl]piperidine-2,6-dione] gave a DC50 of 0.36 nM. Work on `Cn1nc(N2CCC(=O)NC2=O)c2ccc(N3CCN(CC4CCN(c5ccc([C@@H]6c7ccc(O)cc7CO[C@@H]6c6ccccc6)cc5)CC4)CC3)cc21` [Compound I-396, 1-(6-(4-((1-(4-((3S,4R)-7-hydroxy-3-phenylisochroman-4-yl)phenyl)piperidin-4-yl)methyl)piperazin-1-yl)-1-methyl-1H-indazol-3-yl)dihydropyrimidine-2,4 (1H,3H)-dione] yielded a DC50 of 0.99 nM. In the case of `O=C1CCC(n2cc3cc(N4CCN(CC5CCN(c6ccc([C@@H]7c8ccc(O)cc8CO[C@@H]7c7ccccc7)cc6)CC5)CC4)ccc3n2)C(=O)N1` (stereo partly drawn) [Compound I-397, 3-(5-(4-((1-(4-((3S,4R)-7-hydroxy-3-phenylisochroman-4-yl)phenyl)piperidin-4-yl)methyl)piperazin-1-yl)-2H-indazol-2-yl)piperidine-2,6-dione], the DC50 is reported as 0.61 nM. `O=C1CCC(n2ncc3cc(N4CCN(CC5CCN(c6ccc([C@@H]7c8ccc(O)cc8CO[C@@H]7c7ccccc7)cc6)CC5)CC4)ccc32)C(=O)N1` (stereo partly drawn) [Compound I-398, 3-(5-(4-((1-(4-((3S,4R)-7-hydroxy-3-phenylisochroman-4-yl)phenyl)piperidin-4-yl)methyl)piperazin-1-yl)-1H-indazol-1-yl)piperidine-2,6-dione] was tested, and the DC50 was 0.83 nM. With `NC(=O)C(CCC(=O)O)N1Cc2cc(N3CCN(CC4CCN(c5ccc([C@@H]6c7ccc(O)cc7CO[C@@H]6c6ccccc6)cc5)CC4)CC3)ccc2C1=O` (some centres unmarked) [Compound I-399] the DC50 was ≥ 10000 nM. With `NC(=O)CCC(C(=O)O)N1Cc2cc(N3CCN(CC4CCN(c5ccc([C@@H]6c7ccc(O)cc7CO[C@@H]6c6ccccc6)cc5)CC4)CC3)ccc2C1=O` (some centres unmarked) [Compound I-400] the DC50 was 7.75 nM. With `COc1cc(N2CCC(CN3CCN(c4ccc5c(c4)CN([C@H]4CCC(=O)NC4=O)C5=O)CC3)CC2)c(-c2ccccc2)cc1[C@@H]1CCC(F)(F)c2cc(O)ccc21` [Compound I-405, (S)-3-(5-(4-((1-(5-((R)-4,4-difluoro-6-hydroxy-1,2,3,4-tetrahydronaphthalen-1-yl)-4-methoxy-[1,1′-biphenyl]-2-yl)piperidin-4-yl)methyl)piperazin-1-yl)-1-oxoisoindolin-2-yl)piperidine-2,6-dione] the DC50 was 1100 nM. `COc1cc(N2CCC(CN3CCN(c4ccc5c(c4)CN([C@H]4CCC(=O)NC4=O)C5=O)CC3)CC2)c(-c2ccccc2)cc1[C@H]1CCC(F)(F)c2cc(O)ccc21` [Compound I-406] gave a DC50 of 25 nM. For `C[C@@H]1CN(c2ccc3c(c2)CN([C@H]2CCC(=O)NC2=O)C3=O)CCN1CC1CCN(c2ccc([C@@H]3c4ccc(O)cc4CC[C@@H]3c3ccccc3)cc2)CC1` [II-2], the DC50 was 1 nM. `O=C1CC[C@H](N2Cc3cc(N4C[C@@H]5C[C@H]4CN5CC4CCN(c5ccc([C@@H]6c7ccc(O)cc7CC[C@@H]6c6ccccc6)cc5)CC4)ccc3C2=O)C(=O)N1` [II-7] was tested, and the DC50 was ≥ 10000 nM. `O=C1CC[C@H](N2Cc3cc(N4C[C@@H]5C[C@H]4CN5CC4CCN(c5ccc([C@H]6c7ccc(O)cc7CC[C@H]6c6ccccc6)cc5)CC4)ccc3C2=O)C(=O)N1` [II-8] was tested, and the DC50 was ≥ 10000 nM. Work on `O=C1CC[C@H](N2Cc3cc(N4CCN(C5CCN(c6ccc([C@H]7c8ccc(O)cc8CC[C@H]7c7ccccc7)cc6)CC5)CC4)ccc3C2=O)C(=O)N1` [II-30] yielded a DC50 of 100 nM. `O=C1CC[C@H](N2Cc3cc(N4CCN(C5CCN(c6ccc([C@@H]7c8ccc(O)cc8CC[C@@H]7c7ccccc7)cc6)CC5)CC4)ccc3C2=O)C(=O)N1` [II-31] showed a DC50 of 0.9 nM. `O=C1CC[C@H](N2Cc3cc(N4CCN(C[C@H]5CC[C@H](c6ccc([C@@H]7c8ccc(O)cc8CC[C@@H]7c7ccccc7)cc6)CC5)CC4)ccc3C2=O)C(=O)N1` [II-52] was tested, and the DC50 was 0.15 nM. Compound `O=C1CCC(N2Cc3cc(N4CCN(CC5CCC(c6ccc([C@@H]7c8ccc(O)cc8CC[C@@H]7c7ccccc7)cc6)CC5)CC4)ccc3C2=O)C(=O)N1` (some centres unmarked) [II-53] has a DC50 of 0.22 nM. For `COc1ccc2c(c1)CC[C@H](c1ccccc1)[C@@H]2c1ccc(N2CCC(CN3CCN(c4ccc5c(c4)CN([C@H]4CCC(=O)NC4=O)C5=O)CC3)CC2)cc1` [II-59], the DC50 was ≥ 10000 nM. With `O=C1CC[C@H](N2Cc3cc(N4CCN(CC5CCN(c6ccc([C@@H]7c8ccc(Cl)cc8CC[C@@H]7c7ccccc7)cc6)CC5)CC4)ccc3C2=O)C(=O)N1` [II-60] the DC50 was ≥ 10000 nM. `O=C1CC[C@H](N2Cc3cc(N4CCN(CC5CCN(c6ccc([C@@H]7c8ccc(Br)cc8CC[C@@H]7c7ccccc7)cc6)CC5)CC4)ccc3C2=O)C(=O)N1` [II-62] was tested, and the DC50 was ≥ 10000 nM. Work on `O=C1CC[C@H](N2Cc3cc(N4CCN(CC5CCN(c6ccc([C@@H]7c8ccc(O)c(Cl)c8CC[C@@H]7c7ccccc7)cc6Cl)CC5)CC4)ccc3C2=O)C(=O)N1` [II-64] yielded a DC50 of 16 nM. `O=C1CC[C@H](N2Cc3cc(N4CCN(CC5CCN(c6ccc([C@@H]7c8ccc(O)c(Cl)c8CC[C@@H]7c7ccccc7)cc6)CC5)CC4)ccc3C2=O)C(=O)N1` [II-65] showed a DC50 of 4 nM. Work on `O=C1CC[C@H](N2Cc3cc(N4CCN(CCCCCOc5ccc([C@@H]6c7ccc(O)cc7CC[C@@H]6c6ccccc6)cc5)CC4)ccc3C2=O)C(=O)N1` [II-66] yielded a DC50 of 0.33 nM. For `O=C1CC[C@H](N2Cc3cc(N4CCN(C(=O)C5CCN(c6ccc([C@@H]7c8ccc(O)cc8CC[C@@H]7c7ccccc7)cc6)CC5)CC4)ccc3C2=O)C(=O)N1` [II-68], the DC50 was 0.5 nM. `Cc1cc(F)cc(C)c1[C@@H]1CCc2cc(O)ccc2[C@@H]1c1ccc(N2CCC(CN3CCN(c4ccc5c(c4)CN([C@H]4CCC(=O)NC4=O)C5=O)CC3)CC2)cc1` [II-71] was tested, and the DC50 was ≥ 10000 nM. With `Cc1cc(F)cc(C)c1[C@H]1CCc2cc(O)ccc2[C@H]1c1ccc(N2CCC(CN3CCN(c4ccc5c(c4)CN([C@H]4CCC(=O)NC4=O)C5=O)CC3)CC2)cc1` [II-72] the DC50 was ≥ 10000 nM. `Cc1cc(F)cc(F)c1[C@@H]1CCc2cc(O)ccc2[C@@H]1c1ccc(N2CCC(CN3CCN(c4ccc5c(c4)CN([C@H]4CCC(=O)NC4=O)C5=O)CC3)CC2)cc1` [II-73] showed a DC50 of 361 nM. `Cc1cc(F)cc(F)c1[C@H]1CCc2cc(O)ccc2[C@H]1c1ccc(N2CCC(CN3CCN(c4ccc5c(c4)CN([C@H]4CCC(=O)NC4=O)C5=O)CC3)CC2)cc1` [II-74] showed a DC50 of 0.13 nM. `Cc1cc(F)c([C@H]2CCc3cc(O)ccc3[C@H]2c2ccc(N3CCC(CN4CCN(c5ccc6c(c5)CN([C@H]5CCC(=O)NC5=O)C6=O)CC4)CC3)cc2)cc1F` [II-75] showed a DC50 of 0.73 nM. `Cc1cc(F)c([C@@H]2CCc3cc(O)ccc3[C@@H]2c2ccc(N3CCC(CN4CCN(c5ccc6c(c5)CN([C@H]5CCC(=O)NC5=O)C6=O)CC4)CC3)cc2)cc1F` [II-76] was tested, and the DC50 was ≥ 10000 nM. In the case of `O=C1CC[C@H](N2Cc3cc(N4CCN(CC5CCN(c6ccc([C@H]7c8ccc(O)cc8CC[C@H]7c7ccccc7)nc6)CC5)CC4)ccc3C2=O)C(=O)N1` [II-77], the DC50 is reported as ≥ 10000 nM. Compound `O=C1CC[C@H](N2Cc3cc(N4CCN(CC5CCN(c6ccc([C@@H]7c8ccc(O)cc8CC[C@@H]7c7ccccc7)nc6)CC5)CC4)ccc3C2=O)C(=O)N1` [II-78] has a DC50 of 1.37 nM. For `O=C1CC[C@H](N2Cc3cc(N4CCN(CC5CCN(c6ccc([C@H]7c8ccc(O)cc8CC[C@H]7c7ccccc7)cn6)CC5)CC4)ccc3C2=O)C(=O)N1` [II-79], the DC50 was ≥ 10000 nM. In the case of `O=C1CC[C@H](N2Cc3cc(N4CCN(CC5CCN(c6ccc([C@@H]7c8ccc(O)cc8CC[C@@H]7c7ccccc7)cn6)CC5)CC4)ccc3C2=O)C(=O)N1` [II-80], the DC50 is reported as 0.68 nM.
